In ChEMBL document CHEMBL3813610, “Proteasome inhibition by new dual warhead containing peptido vinyl sulfonyl fluorides” (Bioorg Med Chem, 2016) one finds IC50 data, which are given here for four molecules.

A short description of this experiment: Inhibition of 20S proteasome (unknown origin) using Suc-LLVY-AMC as substrate preincubated for 1 hr followed by substrate addition incubated for 1 hr by fluorescence analysis. Also noted: species or system Homo sapiens.

Turning to `CC(C)C[C@@H](CS(=O)(=O)F)NC(=O)[C@H](CC(C)C)NC(=O)[C@H](CC(C)C)NC(=O)OCc1ccccc1`, the IC50 (commonly the concentration needed to halve the response being measured) was 89.1 nM. In the case of `CC(C)C[C@@H](CS(=O)(=O)F)NC(=O)[C@H](CC(C)C)NC(=O)[C@H](CC(C)C)NC(=O)[C@H](CC(C)C)NC(=O)OCc1ccccc1` it was 17.8 nM; in that of `CC(C)C[C@@H](/C=C/S(=O)(=O)F)NC(=O)[C@H](CC(C)C)NC(=O)[C@H](CC(C)C)NC(=O)[C@H](CC(C)C)NC(=O)OCc1ccccc1`, 99 nM. Then `CC(C)C[C@@H](/C=C/S(=O)(=O)F)NC(=O)[C@H](CC(C)C)NC(=O)[C@H](CC(C)C)NC(=O)OCc1ccccc1`, with 218 nM.
